In patent US6495160B2, “Biphasic multicomponent pharmaceutical dosage forms containing substances able to modify the partitioning of drugs” (Eurand International S.p.A., priority 1997, dated 2002):

Test: Apparent partition coefficient (Pm) between oil and water phases
Type: physicochemical
Conditions: oily phase Labrafac Hydro, benzyl alcohol 1:1, 24 hours
Procedure: The water volume contained a starting concentration of active principle (C0) which was lower than the solubility of the active principle in each of the two phases. At the end of the experiment, the concentrations of active principle in the water phase (CA) were measured by cromatography (HPLC).

In the case of `CS(=O)(=O)Nc1ccc([N+](=O)[O-])cc1Oc1ccccc1` [NIME, Nimesulide], the “Partition coefficient (Pm) of the Active Principle” value (“Partition coefficient (Pm)” for short) (NMP 0% in aqueous phase) is reported as 1.75, the “Partition coefficient (Pm)” value (NMP 5% in aqueous phase) is reported as 36.7 and the “Partition coefficient (Pm)” value (NMP 10% in aqueous phase) is reported as 63.5. The “Partition coefficient (Pm)” value (NMP 15% in aqueous phase) was 98.3 and the “Partition coefficient (Pm)” value (NMP 20% in aqueous phase) was 29.6.
